The CheMixHub drug solubility set

Experiment: xn = mol fraction of the nth substance listed, in the solute-free solvent

COC(=O)Nc1nc2ccccc2[nH]1 + CN(C)C=O + O
solubility (g/100 g solution)
Conditions | 278.15 K | 283.15 K | 288.15 K | 293.15 K | 298.15 K | 303.15 K | 308.15 K | 313.15 K | 318.15 K
x2 = 0.02669 | 0.00314 | 0.0037 | 0.00435 | 0.00513 | 0.00608 | 0.0069 | 0.00793 | 0.00907 | 0.0104
x2 = 0.05816 | 0.0129 | 0.0149 | 0.017 | 0.0196 | 0.0227 | 0.0252 | 0.0284 | 0.0319 | 0.0358
x2 = 0.09552 | 0.0278 | 0.0343 | 0.0397 | 0.045 | 0.0511 | 0.0563 | 0.0627 | 0.0696 | 0.0773
x2 = 0.1411 | 0.0542 | 0.0604 | 0.0678 | 0.076 | 0.0856 | 0.0938 | 0.103 | 0.114 | 0.126
x2 = 0.1978 | 0.0795 | 0.0881 | 0.098 | 0.109 | 0.122 | 0.133 | 0.147 | 0.161 | 0.175
x2 = 0.2702 | 0.108 | 0.12 | 0.133 | 0.147 | 0.163 | 0.177 | 0.194 | 0.211 | 0.23
x2 = 0.3643 | 0.144 | 0.159 | 0.174 | 0.192 | 0.212 | 0.23 | 0.25 | 0.271 | 0.294
x2 = 0.4967 | 0.186 | 0.205 | 0.223 | 0.244 | 0.268 | 0.29 | 0.315 | 0.339 | 0.365
x2 = 0.6912 | 0.219 | 0.24 | 0.259 | 0.282 | 0.308 | 0.333 | 0.359 | 0.387 | 0.416

Nc1cc(-c2ccncc2)c[nH]c1=O + CN(C)C=O + O
solubility (g/100 g solution)
Conditions | 278.15 K | 283.15 K | 288.15 K | 293.15 K | 298.15 K | 303.15 K | 308.15 K | 313.15 K | 318.15 K | 323.15 K
x2 = 0.02666 | 0.00203 | 0.00236 | 0.0028 | 0.00324 | 0.00375 | 0.00428 | 0.00488 | 0.00552 | 0.00624 | 0.00705
x2 = 0.05806 | 0.00422 | 0.00489 | 0.00574 | 0.00661 | 0.00759 | 0.00861 | 0.00975 | 0.011 | 0.0123 | 0.0139
x2 = 0.09556 | 0.00683 | 0.00794 | 0.00916 | 0.0106 | 0.0122 | 0.014 | 0.0156 | 0.0177 | 0.0198 | 0.0224
x2 = 0.1412 | 0.00979 | 0.0113 | 0.0131 | 0.015 | 0.0171 | 0.0195 | 0.0221 | 0.0248 | 0.0277 | 0.0316
x2 = 0.1978 | 0.0124 | 0.0143 | 0.0167 | 0.0193 | 0.022 | 0.0249 | 0.0283 | 0.0322 | 0.036 | 0.0407
x2 = 0.27 | 0.0152 | 0.0177 | 0.0208 | 0.0238 | 0.0272 | 0.0308 | 0.0348 | 0.0395 | 0.0442 | 0.0497
x2 = 0.3652 | 0.0161 | 0.0195 | 0.0231 | 0.0268 | 0.0307 | 0.035 | 0.0397 | 0.0451 | 0.0506 | 0.0572
x2 = 0.4965 | 0.0192 | 0.0227 | 0.0267 | 0.0306 | 0.035 | 0.0398 | 0.0452 | 0.0516 | 0.0579 | 0.0654
x2 = 0.6893 | 0.0186 | 0.0221 | 0.0258 | 0.0305 | 0.0349 | 0.0402 | 0.0458 | 0.0523 | 0.0593 | 0.0673

Cl.NC1CCSC1=O (stereo unspecified) + CO + CC#N
solubility (g/100 g solution)
Conditions | x2 = 0.1 | x2 = 0.2 | x2 = 0.3 | x2 = 0.4 | x2 = 0.5 | x2 = 0.6 | x2 = 0.7 | x2 = 0.8 | x2 = 0.9
283.15 K | 0.153 | 0.482 | 1.04 | 1.98 | 3.18 | 4.35 | 4.99 | 5.63 | 6.22
293.15 K | 0.155 | 0.525 | 1.13 | 2.12 | 3.55 | 4.89 | 6.04 | 6.92 | 7.84
303.15 K | 0.17 | 0.539 | 1.22 | 2.35 | 3.91 | 5.55 | 6.97 | 8.29 | 9.23
313.15 K | 0.177 | 0.556 | 1.32 | 2.56 | 4.25 | 6.26 | 7.78 | 9.55 | 10.7
323.15 K | 0.194 | 0.6 | 1.46 | 2.83 | 4.71 | 7.06 | 8.51 | 10.9 | 12.3

Nc1cccc2c1CN(C1CCC(=O)NC1=O)C2=O (stereo unspecified) + CO + CCOC(C)=O
solubility (g/100 g solution)
Conditions | 273.15 K | 278.15 K | 283.15 K | 288.15 K | 293.15 K | 298.15 K | 303.15 K | 308.15 K | 313.15 K | 318.15 K
x2 = 0.4074 | 0.261 | 0.29 | 0.318 | 0.352 | 0.389 | 0.429 | 0.475 | 0.525 | 0.581 | 0.642
x2 = 0.647 | 0.353 | 0.398 | 0.443 | 0.489 | 0.536 | 0.592 | 0.648 | 0.714 | 0.786 | 0.863
x2 = 0.8048 | 0.354 | 0.393 | 0.437 | 0.491 | 0.546 | 0.608 | 0.679 | 0.76 | 0.852 | 0.952
x2 = 0.9166 | 0.352 | 0.385 | 0.426 | 0.481 | 0.536 | 0.599 | 0.67 | 0.755 | 0.854 | 0.959
